Test results as given in ChEMBL document CHEMBL1143055, “2,3,5-Substituted tetrahydrofurans as cancer chemopreventives. Part 1: synthesis and anti-cancer activities of 5-hydroxymethyl-2,3-diaryl-tetrahydro-furan-3-ols” (2007).

Legend:
CCRF-CEM [1] = assay: Antitumor activity against human CCRF-CEM cells; type: functional
Malme-3M = assay: Antitumor activity against human MALME-3M cells; type: functional
IGROV-1 = assay: Antitumor activity against human IGROV1 cells; type: functional
MOLT-4 = assay: Antitumor activity against human MOLT4 cells; type: functional
KM12 = assay: Antitumor activity against human KM12 cells; type: functional
OVCAR-5 = assay: Antitumor activity against human OVCAR5 cells; type: functional
HCC 2998 = assay: Antitumor activity against human HCC2998 cells; type: functional
CAKI-1 = assay: Antitumor activity against human CAKI-1 cells; type: functional
SK-MEL-5 = assay: Antitumor activity against human SK-MEL-5 cells; type: functional
SF-295 = assay: Antitumor activity against human SF295 cells; type: functional
A549 = assay: Antitumor activity against human A549 cells; type: functional
HCT-15 = assay: Antitumor activity against human HCT15 cells; type: functional
[2] = Antitumor activity against human HL60 (TB) cells; type: functional, HL-60(TB); conditions: HL-60
SN12C = assay: Antitumor activity against human SN12C cells; type: functional
OVCAR-8 = assay: Antitumor activity against human OVCAR8 cells; type: functional
UACC-62 = assay: Antitumor activity against human UACC62 cells; type: functional
BT-549 = assay: Antitumor activity against human BT549 cells; type: functional
UACC-257 = assay: Antitumor activity against human UACC257 cells; type: functional
NCI-H460 = assay: Antitumor activity against human NCI-H460 cells; type: functional
SF-268 = assay: Antitumor activity against human SF268 cells; type: functional
NCI-H23 = assay: Antitumor activity against human NCI-H23 cells; type: functional
SNB-19 = assay: Antitumor activity against human SNB19 cells; type: functional
RXF 393 = assay: Antitumor activity against human RXF393 cells; type: functional
DU-145 = assay: Antitumor activity against human DU145 cells; type: functional
SF-539 = assay: Antitumor activity against human SF539 cells; type: functional
SK-OV-3 = assay: Antitumor activity against human SK-OV-3 cells; type: functional
NCI-H522 = assay: Antitumor activity against human NCI-H522 cells; type: functional
HOP-62 = assay: Antitumor activity against human HOP62 cells; type: functional
ACHN = assay: Antitumor activity against human ACHN cells; type: functional
A498 = assay: Antitumor activity against human A498 cells; type: functional
SK-MEL-28 = assay: Antitumor activity against human SK-MEL-28 cells; type: functional
UO-31 = assay: Antitumor activity against human UO31 cells; type: functional
MCF7 = assay: Antitumor activity against human MCF7 cells; type: functional
HOP-92 = assay: Antitumor activity against human HOP92 cells; type: functional
HT-29 = assay: Antitumor activity against human HT29 cells; type: functional
MDA-MB-435 = assay: Antitumor activity against human MDA-MB-435 cells; type: functional
K562 = assay: Antitumor activity against human K562 cells; type: functional
SW-620 = assay: Antitumor activity against human SW620 cells; type: functional
NCI/ADR-RES = assay: Antitumor activity against human NCI/ADR-RES cells; type: functional
PC-3 = assay: Antitumor activity against human PC3 cells; type: functional
TK-10 = assay: Antitumor activity against human TK10 cells; type: functional
786-0 = assay: Antitumor activity against human 786-0 cells; type: functional
RPMI-8226 = assay: Antitumor activity against human RPMI8226 cells; type: functional
SNB-75 = assay: Antitumor activity against human SNB75 cells; type: functional
OVCAR-3 = assay: Antitumor activity against human OVCAR-3 cells; type: functional
LOX IMVI = assay: Antitumor activity against human LOX IMVI cells; type: functional
U-251 = assay: Antitumor activity against human U251 cells; type: functional
EKVX = assay: Antitumor activity against human EKVX cells; type: functional
NCI-H226 = assay: Antitumor activity against human NCI-H226 cells; type: functional
[3] = Antitumor activity against human HS 578T cells; type: functional
[4] = Antitumor activity against human […] cells; type: functional
[5] = Antitumor activity against human NCI-H322 cells; type: functional
OVCAR-4 = assay: Antitumor activity against human OVCAR4 cells; type: functional
COLO 205 = assay: Antitumor activity against human COLO205 cells; type: functional
HCT-116 = assay: Antitumor activity against human HCT116 cells; type: functional
SR [6] = assay: Antitumor activity against human SR cells; type: functional
SR [7] = assay: Growth inhibition of human SR cells at 1 uM; type: functional
CCRF-CEM [8] = assay: Growth inhibition of huam CCRF-CEM at 1 uM; type: functional; conditions: Homo sapiens
[9] = Growth inhibition of human HS 578T cells at 10 nM; type: functional

For O=c1[nH]cc(F)c(=O)[nH]1 [FLUOROURACIL], the GI50 (CCRF-CEM [1]) was 31.6 µM, the GI50 (Malme-3M) was 20 µM and the GI50 (IGROV-1) was 12.6 µM. The GI50 (MOLT-4) was 12.6 µM, the GI50 (KM12) was 10 µM and the GI50 (OVCAR-5) was 158 µM. The GI50 (HCC 2998) was 1.58 µM, the GI50 (CAKI-1) was 3.98 µM and the GI50 (SK-MEL-5) was 12.6 µM. The GI50 (SF-295) was 50.1 µM, the GI50 (A549) was 2 µM and the GI50 (HCT-15) was 6.31 µM. It also gave a GI50 [2] of 20 µM, a GI50 (SN12C) of 25.1 µM and a GI50 (OVCAR-8) of 20 µM. The GI50 (UACC-62) was 12.6 µM, the GI50 (BT-549) was 100 µM and the GI50 (UACC-257) was 100 µM. The GI50 (NCI-H460) was 1 µM, the GI50 (SF-268) was 50.1 µM and the GI50 (NCI-H23) was 12.6 µM. The GI50 (SNB-19) was 126 µM, the GI50 (RXF 393) was 50.1 µM and the GI50 (DU-145) was 10 µM. The GI50 (SF-539) was 1.26 µM, the GI50 (SK-OV-3) was 158 µM and the GI50 (NCI-H522) was 39.8 µM. It also gave a GI50 (HOP-62) of 20 µM, a GI50 (ACHN) of 10 µM and a GI50 (A498) of 10 µM. The GI50 (SK-MEL-28) was 50.1 µM, the GI50 (UO-31) was 5.01 µM and the GI50 (MCF7) was 1.58 µM. For the same compound, the GI50 (HOP-92) was 158 µM, the GI50 (HT-29) was 6.31 µM and the GI50 (MDA-MB-435) was 10 µM. It also gave a GI50 (K562) of 20 µM, a GI50 (SW-620) of 25.1 µM and a GI50 (NCI/ADR-RES) of 39.8 µM. For the same compound, the GI50 (PC-3) was 50.1 µM, the GI50 (TK-10) was 126 µM and the GI50 (786-0) was 12.6 µM. The GI50 (RPMI-8226) was 5.01 µM, the GI50 (SNB-75) was 200 µM and the GI50 (OVCAR-3) was 25.1 µM. The GI50 (LOX IMVI) was 6.31 µM, the GI50 (U-251) was 39.8 µM and the GI50 (EKVX) was 316 µM. For the same compound, the GI50 (NCI-H226) was 251 µM, the GI50 [3] was 251 µM and the GI50 [4] was 501 µM. The GI50 [5] was 20 µM, the GI50 (OVCAR-4) was 63.1 µM and the GI50 (COLO 205) was 6.31 µM. It also gave a GI50 (HCT-116) of 0.398 µM and a GI50 (SR [6]) of 3.98 µM.
Work on OC[C@H]1C[C@](O)(c2ccc(Cl)cc2)[C@@H](c2ccc(Cl)cc2)O1 (relative stereo) yielded a GI50 (CCRF-CEM [1]) of 0.468 µM, a GI50 (Malme-3M) of 21.4 µM and a GI50 (MOLT-4) of 17.8 µM. For the same compound, the inhibition at 1 µM (SR [7]) was 87%, the GI50 (KM12) was 20.4 µM and the GI50 (OVCAR-5) was 25.7 µM. The GI50 (HCC 2998) was 24 µM, the GI50 (CAKI-1) was 26.9 µM and the GI50 (SK-MEL-5) was 15.1 µM. The GI50 (SF-295) was 30.2 µM, the GI50 (A549) was 29.5 µM and the inhibition at 1 µM (CCRF-CEM [8]) was 71%. It also gave a GI50 (HCT-15) of 31.6 µM, a GI50 [2] of 17.4 µM and a GI50 (SN12C) of 17 µM. It also gave a GI50 (OVCAR-8) of 30.9 µM, a GI50 (UACC-62) of 15.8 µM and a GI50 (BT-549) of 16.6 µM. It also gave a GI50 (UACC-257) of 21.4 µM, a GI50 (NCI-H460) of 20 µM and a GI50 (SF-268) of 26.9 µM. For the same compound, the GI50 (NCI-H23) was 24.5 µM, the GI50 (SNB-19) was 38 µM and the GI50 (RXF 393) was 20.9 µM. For the same compound, the GI50 (DU-145) was 21.9 µM, the GI50 (SF-539) was 23.4 µM and the GI50 (SK-OV-3) was 39.8 µM. It also gave a GI50 (NCI-H522) of 26.3 µM, a GI50 (HOP-62) of 20.9 µM and a GI50 (ACHN) of 28.2 µM. For the same compound, the GI50 (A498) was 24.5 µM, the GI50 (SK-MEL-28) was 28.8 µM and the GI50 (UO-31) was 19.5 µM. It also gave a GI50 (MCF7) of 30.2 µM, a GI50 (HOP-92) of 17 µM and a GI50 (HT-29) of 24 µM. For the same compound, the GI50 (MDA-MB-435) was 22.9 µM, the GI50 (K562) was 25.1 µM and the GI50 (SW-620) was 27.5 µM. For the same compound, the GI50 (NCI/ADR-RES) was 30.2 µM, the GI50 (PC-3) was 20 µM and the GI50 (TK-10) was 30.2 µM. The inhibition at 0.01 µM [9] was 21%, the GI50 (786-0) was 22.4 µM and the GI50 (RPMI-8226) was 13.8 µM. For the same compound, the GI50 (SNB-75) was 22.9 µM, the GI50 (OVCAR-3) was 26.3 µM and the GI50 (LOX IMVI) was 17.8 µM. For the same compound, the GI50 (U-251) was 24.5 µM, the GI50 (EKVX) was 18.2 µM and the GI50 (NCI-H226) was 26.3 µM. For the same compound, the GI50 [3] was 18.2 µM, the GI50 [4] was 19.5 µM and the GI50 [5] was 35.5 µM. For the same compound, the GI50 (OVCAR-4) was 32.4 µM, the GI50 (COLO 205) was 25.7 µM and the GI50 (HCT-116) was 17.4 µM. For the same compound, the GI50 (SR [6]) was 20.4 µM.
